Experimental data taken from patent US9067926B2, “Fluoromethyl-5,6-dihydro-4H-[1,3]OXAZINES” (F. Hoffmann-La Roche AG, priority 2012, dated 2015).

Biological target: T1, BACE1 (Homo sapiens, UniProt P56817)
T1 construct: endogenous in cells; host or cells: HEK293 APP cells
Experiment: Cellular Aβ-lowering assay (Abeta 40 AlphaLISA)
Format: cell-based
Details: HEK293 APP cells, 18-20 hrs incubation, Aβ 40 in culture supernatant; read-out: BACE1 cell act. Aβ40 IC50
Experimental: Cellular Aβ-Lowering Assay:
The Abeta 40 AlphaLISA Assay can be used. The HEK293 APP cells were seeded in 96 well Microtiter plates in cell culture medium (Iscove's, plus 10% (vv) fetal bovine serum, penicillinstreptomycin) to about 80% confluency and the compounds were added at a 3× concentration in 13 volume of culture medium (final DMSO concentration was kept at 1% vv). After 18-20 hrs incubation at 37° C. and 5% CO2 in a humidified incubator, the culture supernatants were harvested for the determination of Aβ 40 concentrations using Perkin-Elmer Human Amyloid beta 1-40 (high specificity) Kit (Cat# AL275C).
Levels of Aβ 40 in the culture supernatants were calculated as percentage of maximum signal (cells treated with 1% DMSO without inhibitor). The IC50 values were calculated using the Excel XLfit software.

T1 sequence (P56817 46-501): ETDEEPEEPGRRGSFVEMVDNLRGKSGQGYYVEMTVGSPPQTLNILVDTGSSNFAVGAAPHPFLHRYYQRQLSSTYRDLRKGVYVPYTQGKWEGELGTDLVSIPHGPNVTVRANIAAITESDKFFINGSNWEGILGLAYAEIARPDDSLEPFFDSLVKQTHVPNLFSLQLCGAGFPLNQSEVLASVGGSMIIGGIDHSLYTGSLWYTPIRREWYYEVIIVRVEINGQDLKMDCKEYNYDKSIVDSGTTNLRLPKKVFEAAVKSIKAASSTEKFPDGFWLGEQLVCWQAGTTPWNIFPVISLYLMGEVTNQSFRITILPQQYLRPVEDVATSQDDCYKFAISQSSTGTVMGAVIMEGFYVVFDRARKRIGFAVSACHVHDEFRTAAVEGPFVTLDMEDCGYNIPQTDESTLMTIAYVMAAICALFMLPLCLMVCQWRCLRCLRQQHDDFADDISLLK

IC50 [nM] | SMILES
5 | C[C@@]1(c2cc(NC(=O)c3cnc(C(F)F)cn3)ccc2F)C[C@@H](C(F)(F)F)OC(N)=N1 [Example 20, N-(3-((4S,6S)-2-Amino-4-methyl-6-(trifluoromethyl)-5,6-dihydro-4H-1,3-oxazin-4-yl)-4-fluorophenyl)-5-(difluoromethyl)pyrazine-2-carboxamide]
7 | NC1=N[C@](CF)(c2cc(NC(=O)c3ccc(OC(F)F)cn3)ccc2F)C[C@@H](C(F)(F)F)O1 [Example 31, N-(3-((4S,6S)-2-Amino-4-(fluoromethyl)-6-(trifluoromethyl)-5,6-dihydro-4H-1,3-oxazin-4-yl)-4-fluorophenyl)-5-(difluoromethoxy)picolinamide]
7 | NC1=N[C@](CF)(c2cc(NC(=O)c3ccc(OC(F)(F)F)cn3)ccc2F)C[C@@H](C(F)(F)F)O1 [Example 32, N-(3-((4S,6S)-2-Amino-4-(fluoromethyl)-6-(trifluoromethyl)-5,6-dihydro-4H-1,3-oxazin-4-yl)-4-fluorophenyl)-5-(trifluoromethoxy)picolinamide]
71 | NC1=N[C@](CF)(c2cc(NC(=O)c3ccc(OCC(F)(F)F)cn3)ccc2F)C[C@@H](C(F)(F)F)O1 [Example 34, N-(3-((4S,6S)-2-Amino-4-(fluoromethyl)-6-(trifluoromethyl)-5,6-dihydro-4H-1,3-oxazin-4-yl)-4-fluorophenyl)-5-(2,2,2-trifluoroethoxy)picolinamide]
0.6 | CC#CCOc1cnc(C(=O)Nc2ccc(F)c([C@]3(CF)C[C@@H](C(F)(F)F)OC(N)=N3)c2)cn1 [Example 38, N-(3-((4S,6S)-2-Amino-4-(fluoromethyl)-6-(trifluoromethyl)-5,6-dihydro-4H-1,3-oxazin-4-yl)-4-fluorophenyl)-5-(but-2-ynyloxy)pyrazine-2-carboxamide]
29 | NC1=N[C@](CF)(c2cc(NC(=O)c3cnc(OCC(F)F)cn3)ccc2F)C[C@@H](C(F)(F)F)O1 [Example 40, N-(3-((4S,6S)-2-Amino-4-(fluoromethyl)-6-(trifluoromethyl)-5,6-dihydro-4H-1,3-oxazin-4-yl)-4-fluorophenyl)-5-(2,2-difluoroethoxyl)pyrazine-2-carboxamide]
3 | NC1=N[C@](CF)(c2cc(NC(=O)c3cnc(OCF)cn3)ccc2F)C[C@@H](C(F)(F)F)O1 [Example 43, N-(3-((4S,6S)-2-Amino-4-(fluoromethyl)-6-(trifluoromethyl)-5,6-dihydro-4H-1,3-oxazin-4-yl)-4-fluorophenyl)-5-(fluoromethoxy)pyrazine-2-carboxamide]
82 | N#Cc1ccc(C(=O)Nc2ccc(F)c([C@]3(C(F)F)C[C@@H](C(F)(F)F)OC(N)=N3)c2)nc1 [Example 49, N-(3-((4S,6S)-2-Amino-4-(difluoromethyl)-6-(trifluoromethyl)-5,6-dihydro-4H-1,3-oxazin-4-yl)-4-fluorophenyl)-5-cyanopicolinamide]

Continued, compound first:

SMILES | IC50 [nM]
C[C@@]1(c2cc(NC(=O)c3ccc(OCC(F)(F)F)cn3)ccc2F)C[C@@H](C(F)(F)F)OC(N)=N1 [Example 18, N-(3-((4S,6S)-2-Amino-4-methyl-6-(trifluoromethyl)-5,6-dihydro-4H-1,3-oxazin-4-yl)-4-fluorophenyl)-5-(2,2,2-trifluoroethoxy)picolinamide] | 8
C[C@@]1(c2cc(NC(=O)c3cnc(CF)cn3)ccc2F)C[C@@H](C(F)(F)F)OC(N)=N1 [Example 19, N-(3-((4S,6S)-2-Amino-4-methyl-6-(trifluoromethyl)-5,6-dihydro-4H-1,3-oxazin-4-yl)-4-fluorophenyl)-5-(fluoromethyl)pyrazine-2-carboxamide] | 6
Cc1cnc(C(=O)Nc2ccc(F)c([C@]3(C)C[C@@H](C(F)(F)F)OC(N)=N3)c2)cn1 [Example 21, N-(3-((4S,6S)-2-Amino-4-methyl-6-(trifluoromethyl)-5,6-dihydro-4H-1,3-oxazin-4-yl)-4-fluorophenyl)-5-methylpyrazine-2-carboxamide] | 59
C[C@@]1(c2cc(NC(=O)c3cnc(OCF)cn3)ccc2F)C[C@@H](C(F)(F)F)OC(N)=N1 [Example 23, N-(3-((4S,6S)-2-Amino-4-methyl-6-(trifluoromethyl)-5,6-dihydro-4H-1,3-oxazin-4-yl)-4-fluorophenyl)-5-(fluoromethoxy)pyrazine-2-carboxamide] | 1
C[C@@]1(c2cc(NC(=O)c3cnc(OC(F)F)cn3)ccc2F)C[C@@H](C(F)(F)F)OC(N)=N1 [Example 24, N-(3-((4S,6S)-2-Amino-4-methyl-6-(trifluoromethyl)-5,6-dihydro-4H-1,3-oxazin-4-yl)-4-fluorophenyl)-5-(difluoromethoxy)pyrazine-2-carboxamide] | 3
C[C@@]1(c2cc(NC(=O)c3coc(CF)n3)ccc2F)C[C@@H](C(F)(F)F)OC(N)=N1 [Example 25, N-(3-((4S,6S)-2-Amino-4-methyl-6-(trifluoromethyl)-5,6-dihydro-4H-1,3-oxazin-4-yl)-4-fluorophenyl)-2-(fluoromethyl)oxazole-4-carboxamide] | 0.8
C[C@@]1(c2cc(NC(=O)c3nn(C(F)F)cc3Cl)ccc2F)C[C@@H](C(F)(F)F)OC(N)=N1 [Example 26, N-(3-((4S,6S)-2-Amino-4-methyl-6-(trifluoromethyl)-5,6-dihydro-4H-1,3-oxazin-4-yl)-4-fluorophenyl)-4-chloro-1-(difluoromethyl)-1H-pyrazole-3-carboxamide] | 1
Cc1cc(C#N)cnc1C(=O)Nc1ccc(F)c([C@]2(CF)C[C@@H](C(F)(F)F)OC(N)=N2)c1 [Example 27, N-(3-((4S,6S)-2-Amino-4-(fluoromethyl)-6-(trifluoromethyl)-5,6-dihydro-4H-1,3-oxazin-4-yl)-4-fluorophenyl)-5-cyano-3-methylpicolinamide] | 2
N#Cc1cnc(C(=O)Nc2ccc(F)c([C@]3(CF)C[C@@H](C(F)(F)F)OC(N)=N3)c2)c(Cl)c1 [Example 28, N-(3-((4S,6S)-2-Amino-4-(fluoromethyl)-6-(trifluoromethyl)-5,6-dihydro-4H-1,3-oxazin-4-yl)-4-fluorophenyl)-3-chloro-5-cyanopicolinamide] | 11
NC1=N[C@](CF)(c2cc(NC(=O)c3ccc(C(F)F)cn3)ccc2F)C[C@@H](C(F)(F)F)O1 [Example 33, N-(3-((4S,6S)-2-Amino-4-(fluoromethyl)-6-(trifluoromethyl)-5,6-dihydro-4H-1,3-oxazin-4-yl)-4-fluorophenyl)-5-(difluoromethyl)picolinamide] | 10
NC1=N[C@](CF)(c2cc(NC(=O)c3cnc(CF)cn3)ccc2F)C[C@@H](C(F)(F)F)O1 [Example 37, N-(3-((4S,6S)-2-Amino-4-(fluoromethyl)-6-(trifluoromethyl)-5,6-dihydro-4H-1,3-oxazin-4-yl)-4-fluorophenyl)-5-(fluoromethyl)ypyrazine-2-carboxamide] | 53
NC1=N[C@](CF)(c2cc(NC(=O)c3cnc(OC(F)F)cn3)ccc2F)C[C@@H](C(F)(F)F)O1 [Example 39, N-(3-((4S,6S)-2-Amino-4-(fluoromethyl)-6-(trifluoromethyl)-5,6-dihydro-4H-1,3-oxazin-4-yl)-4-fluorophenyl)-5-(difluoromethoxy)pyrazine-2-carboxamide] | 0.4
NC1=N[C@](CF)(c2cc(NC(=O)c3cnc(OCC(F)(F)F)cn3)ccc2F)C[C@@H](C(F)(F)F)O1 [Example 41, N-(3-((4S,6S)-2-Amino-4-(fluoromethyl)-6-(trifluoromethyl)-5,6-dihydro-4H-1,3-oxazin-4-yl)-4-fluorophenyl)-5-(2,2,2-trifluoroethoxyl)pyrazine-2-carboxamide] | 17
Cc1cnc(C(=O)Nc2ccc(F)c([C@]3(CF)C[C@@H](C(F)(F)F)OC(N)=N3)c2)cn1 [Example 42, N-(3-((4S,6S)-2-Amino-4-(fluoromethyl)-6-(trifluoromethyl)-5,6-dihydro-4H-1,3-oxazin-4-yl)-4-fluorophenyl)-5-methylpyrazine-2-carboxamide] | 64
NC1=N[C@](CF)(c2cc(NC(=O)c3cnc(C(F)F)cn3)ccc2F)C[C@@H](C(F)(F)F)O1 [Example 45, N-(3-((4S,6S)-2-Amino-4-(fluoromethyl)-6-(trifluoromethyl)-5,6-dihydro-4H-1,3-oxazin-4-yl)-4-fluorophenyl)-5-(difluoromethyl)pyrazine-2-carboxamide] | 39
NC1=N[C@](CF)(c2cc(NC(=O)c3coc(CF)n3)ccc2F)C[C@@H](C(F)(F)F)O1 [Example 47, N-(3-((4S,6S)-2-Amino-4-(fluoromethyl)-6-(trifluoromethyl)-5,6-dihydro-4H-1,3-oxazin-4-yl)-4-fluorophenyl)-2-(fluoromethyl)oxazole-4-carboxamide] | 1
N#Cc1ccc(C(=O)Nc2ccc(F)c([C@]3(C(F)F)C[C@H](C(F)(F)F)OC(N)=N3)c2)nc1 [Example 48, N-(3-((4S,6R)-2-Amino-4-(difluoromethyl)-6-(trifluoromethyl)-5,6-dihydro-4H-1,3-oxazin-4-yl)-4-fluorophenyl)-5-cyanopicolinamide] | 520
